Active and inactive are the calls of the source.
How the values were obtained:
Vero [1] = assay: cells; type: functional, cell-based; conditions: Chlorocebus sabaeus
Vero [2] = assay: cells; type: functional; conditions: Chlorocebus sabaeus
[3] = cytotoxicity in MIN6 insulinoma cells, dose response, cytotoxicity control, cell-based, mouse insulinoma (AID 2122); type: functional;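 note: confirmatory high-throughput counterscreen run to flag cytotoxic compounds; mouse MIN-6 beta cells carrying an insulin promoter eGFP reporter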
[4] = control 3'UTR Renilla luciferase suppression, dose response, counter-screen for Shn3 inhibitor project, cell-based, Clone20-Shn3RL, cherry-picked (AID 624133); type: functional
[5] = Shn3 3'UTR reporter inhibitors, dose response, cell-based, Clone20 osteoblasts, firefly luciferase, cherry-picked (AID 624132); type: functional;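 note: firefly luciferase luminescence from reporter carrying the Shn3 3'UTR in osteoblasts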
[6] = insulin promoter down-regulators in MIN6 cells, imaging, high-content screening, mouse beta cells (AID 1628); type: functional
Protein Wnt-3a = Protein Wnt-3a (Mus musculus, UniProt P27467); assay: Wnt3a-driven reporter signaling inhibition, dose response, selectivity assay for Gli-SUFU antagonist project, Wnt-LIGHT cells, luminescence (AID 651570); type: functional; conditions: read-out: IC50_Mean;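 note: Wnt-LIGHT reporter cells stimulated with conditioned medium from Wnt3a-producing cells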
CAAX prenyl protease 2 [7] = biological target: T1, CAAX prenyl protease 2 (Saccharomyces cerevisiae S288c, UniProt Q03530); type: biochemical
T1 sequence (Q03530 whole entry): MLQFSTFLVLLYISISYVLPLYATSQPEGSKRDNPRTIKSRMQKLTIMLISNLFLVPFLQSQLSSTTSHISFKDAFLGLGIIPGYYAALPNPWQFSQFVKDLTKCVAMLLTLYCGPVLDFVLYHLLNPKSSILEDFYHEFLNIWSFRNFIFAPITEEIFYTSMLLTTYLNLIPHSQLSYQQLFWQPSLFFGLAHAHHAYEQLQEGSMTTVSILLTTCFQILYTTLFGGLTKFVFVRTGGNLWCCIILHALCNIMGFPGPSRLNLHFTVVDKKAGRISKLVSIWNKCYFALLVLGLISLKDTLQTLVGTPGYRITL

CAAX prenyl protease 2 [8] = biological target: T2, CAAX prenyl protease 2 (Homo sapiens, UniProt Q9Y256); assay: human Rce1 protease inhibitors, dose response, biochemical, yeast membranes, quenched-peptide fluorescence, cherry-pick (AID 588849)
T2 sequence (Q9Y256 whole entry): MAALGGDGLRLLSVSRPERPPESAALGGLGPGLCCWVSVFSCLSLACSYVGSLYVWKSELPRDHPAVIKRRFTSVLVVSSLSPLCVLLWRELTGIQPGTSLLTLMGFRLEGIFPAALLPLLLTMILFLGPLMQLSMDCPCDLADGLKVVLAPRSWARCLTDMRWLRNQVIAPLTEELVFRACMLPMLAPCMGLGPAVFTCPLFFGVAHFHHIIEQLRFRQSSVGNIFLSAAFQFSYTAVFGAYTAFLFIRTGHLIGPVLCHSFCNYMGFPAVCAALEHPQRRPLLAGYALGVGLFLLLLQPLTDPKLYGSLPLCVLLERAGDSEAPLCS

[9] = biological target: DNA damage-inducible transcript 3 protein (Mus musculus, UniProt P35639); type: functional, Cricetulus griseus
[10] = biological target: Glucose-6-phosphate 1-dehydrogenase (Homo sapiens, UniProt P11413); assay: human G6PD enzyme inhibitors, dose response, selectivity assay for P. falciparum G6PD inhibitor project, biochemical, fluorescence (AID 504792); type: functional
cells [11] = type: functional
Bcl-2-related protein A1 = biological target: T3, Bcl-2-related protein A1 (Mus musculus, UniProt Q07440); type: functional;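 note: confirmatory dose–response counterscreen on Bfl-1, used to check hits from a UBC13 polyubiquitin inhibitor campaign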
T3 sequence (Q07440 whole entry): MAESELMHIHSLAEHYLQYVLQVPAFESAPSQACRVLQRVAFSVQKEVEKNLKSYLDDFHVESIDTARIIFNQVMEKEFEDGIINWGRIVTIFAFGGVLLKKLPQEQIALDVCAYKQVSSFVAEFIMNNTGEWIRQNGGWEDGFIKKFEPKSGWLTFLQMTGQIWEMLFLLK

cells [12] = assay: cells
[13] = biological target: T4, Ubiquitin-conjugating enzyme E2 N (Homo sapiens, UniProt P61088); type: functional
T4 sequence (P61088 whole entry): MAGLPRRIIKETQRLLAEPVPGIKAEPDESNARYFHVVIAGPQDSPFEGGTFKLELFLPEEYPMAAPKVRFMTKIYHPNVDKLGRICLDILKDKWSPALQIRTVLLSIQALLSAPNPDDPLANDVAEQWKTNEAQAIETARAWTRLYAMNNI

[14] = cytotoxicity toward NIH3T3 fibroblasts, dose response, counter-screen, cell-based, ATP luminescence, mouse fibroblasts (AID 2010); type: functional;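 note: cells exposed to compound for about 90 hours before reading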
[15] = biological target: T4, Ubiquitin-conjugating enzyme E2 N; type: functional; remark: listed apart in the source
[16] = inhibitors of intracellular T. cruzi replication, confirmation, NIH3T3 host cells, beta-gal luminescence (AID 2044); type: functional, cell-based;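 note: intracellular parasites grown in NIH/3T3 mouse fibroblasts as host cells; luminescent beta-galactosidase reporter signal from transgenic T. cruzi replicating inside host cells; inhibitors lower the luminescence signal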
Troponin, cardiac muscle = Troponin, cardiac muscle (Homo sapiens, UniProt P19429+P45379+P63316); assay: Fluorescence-based biochemical high throughput dose response assay for activators of the calcium sensitivity of cardiac Regulated Thin Filaments (RTF). [Related pubchem assays (depositor defined):AID493008, AID493018, AID504382, AID504383]; type: protein-complex assay
Protein skinhead-1 = biological target: T5, Protein skinhead-1 (Caenorhabditis elegans, UniProt P34707); type: functional
T5 sequence (P34707 whole entry): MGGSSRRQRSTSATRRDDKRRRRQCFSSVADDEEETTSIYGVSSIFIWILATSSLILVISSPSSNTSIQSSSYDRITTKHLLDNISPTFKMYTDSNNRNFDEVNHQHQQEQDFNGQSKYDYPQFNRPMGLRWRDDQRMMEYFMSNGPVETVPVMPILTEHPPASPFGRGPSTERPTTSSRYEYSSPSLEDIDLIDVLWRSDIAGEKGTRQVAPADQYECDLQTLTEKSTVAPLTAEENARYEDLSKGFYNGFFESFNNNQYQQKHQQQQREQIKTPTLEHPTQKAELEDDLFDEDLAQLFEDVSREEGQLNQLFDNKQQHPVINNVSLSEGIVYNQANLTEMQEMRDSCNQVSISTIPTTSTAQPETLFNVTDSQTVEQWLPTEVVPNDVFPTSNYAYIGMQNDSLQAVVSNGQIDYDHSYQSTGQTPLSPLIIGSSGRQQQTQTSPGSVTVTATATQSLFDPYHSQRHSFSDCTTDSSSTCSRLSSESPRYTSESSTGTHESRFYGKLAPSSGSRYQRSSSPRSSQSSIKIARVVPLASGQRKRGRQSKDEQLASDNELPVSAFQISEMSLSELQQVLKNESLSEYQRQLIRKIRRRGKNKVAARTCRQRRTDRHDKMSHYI

[17] = HEp-2 cell cytotoxicity, dose response, cytotoxicity control for RSV inhibitor project, HTS (AID 2410); type: functional; conditions: human respiratory syncytial virus
Leucine aminopeptidase = biological target: T6, Leucine aminopeptidase (Plasmodium falciparum 3D7, UniProt Q8IL11); assay: P. falciparum M17LAP inhibitors, primary screen, biochemical, fluorogenic H-Leu-NHMec substrate, 1536-well (AID 1619); type: functional
T6 sequence (Q8IL11 whole entry): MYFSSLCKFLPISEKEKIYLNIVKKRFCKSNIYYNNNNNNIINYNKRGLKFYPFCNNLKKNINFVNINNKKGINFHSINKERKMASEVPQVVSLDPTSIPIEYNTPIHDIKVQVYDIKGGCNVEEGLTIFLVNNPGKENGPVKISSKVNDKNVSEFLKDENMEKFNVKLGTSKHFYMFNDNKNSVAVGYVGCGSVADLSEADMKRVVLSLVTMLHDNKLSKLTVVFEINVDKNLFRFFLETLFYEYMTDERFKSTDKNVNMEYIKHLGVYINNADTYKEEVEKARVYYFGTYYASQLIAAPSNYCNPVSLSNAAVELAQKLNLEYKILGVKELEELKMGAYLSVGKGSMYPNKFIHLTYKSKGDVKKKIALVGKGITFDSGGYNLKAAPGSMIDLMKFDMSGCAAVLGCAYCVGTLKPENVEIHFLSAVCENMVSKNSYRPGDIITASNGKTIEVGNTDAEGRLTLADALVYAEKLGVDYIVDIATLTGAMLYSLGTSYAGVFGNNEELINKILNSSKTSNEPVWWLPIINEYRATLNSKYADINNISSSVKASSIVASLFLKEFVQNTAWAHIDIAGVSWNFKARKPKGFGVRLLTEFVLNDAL

[18] = biological target: T7, Alkaline phosphatase, tissue-nonspecific isozyme (Homo sapiens, UniProt P05186); assay: TNAP enzyme inhibition by screening hits, dose response, selectivity assay for mouse IAP inhibitor project, biochemical, human TNAP, uHTS hits (AID 488906); type: functional
T7 sequence (P05186 whole entry): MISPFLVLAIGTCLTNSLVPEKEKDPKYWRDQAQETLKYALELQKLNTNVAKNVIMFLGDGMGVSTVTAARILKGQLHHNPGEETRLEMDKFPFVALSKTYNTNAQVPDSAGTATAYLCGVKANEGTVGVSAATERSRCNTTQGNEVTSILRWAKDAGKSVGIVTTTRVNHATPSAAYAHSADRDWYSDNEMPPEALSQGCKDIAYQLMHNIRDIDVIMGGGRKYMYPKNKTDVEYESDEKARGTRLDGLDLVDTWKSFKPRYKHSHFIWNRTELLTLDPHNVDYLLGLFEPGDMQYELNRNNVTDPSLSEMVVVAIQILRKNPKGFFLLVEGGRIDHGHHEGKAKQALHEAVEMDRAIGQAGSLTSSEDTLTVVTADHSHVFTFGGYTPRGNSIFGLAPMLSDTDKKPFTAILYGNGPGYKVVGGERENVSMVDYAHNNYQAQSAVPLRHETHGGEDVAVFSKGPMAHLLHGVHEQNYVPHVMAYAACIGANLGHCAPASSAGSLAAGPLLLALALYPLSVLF

[19] = biological target: Intestinal-type alkaline phosphatase (Homo sapiens, UniProt P09923); assay: inhibition of human intestinal alkaline phosphatase – biochemical, dose response (AID 488876); type: functional
[20] = biological target: Intestinal-type alkaline phosphatase (Mus musculus, UniProt P24822); assay: PubChem AID 488785; type: functional
[21] = biological target: FAD-linked sulfhydryl oxidase ALR (Homo sapiens, UniProt P55789); assay: inhibitors of human ALR sulfhydryl oxidase, dose response, biochemical, H2O2 detection, luminescence, cherry-pick (AID 493248)
[22] = Luminescence Cell-Based Dose Retest to Confirm Inhibitors of Cancer Stem Cells. [Related pubchem assays (depositor defined):AID2717, AID2721]; type: functional; conditions: Homo sapiens

Chain of Intestinal-type alkaline phosphatase (Homo sapiens, UniProt P09923) (P09923 whole entry): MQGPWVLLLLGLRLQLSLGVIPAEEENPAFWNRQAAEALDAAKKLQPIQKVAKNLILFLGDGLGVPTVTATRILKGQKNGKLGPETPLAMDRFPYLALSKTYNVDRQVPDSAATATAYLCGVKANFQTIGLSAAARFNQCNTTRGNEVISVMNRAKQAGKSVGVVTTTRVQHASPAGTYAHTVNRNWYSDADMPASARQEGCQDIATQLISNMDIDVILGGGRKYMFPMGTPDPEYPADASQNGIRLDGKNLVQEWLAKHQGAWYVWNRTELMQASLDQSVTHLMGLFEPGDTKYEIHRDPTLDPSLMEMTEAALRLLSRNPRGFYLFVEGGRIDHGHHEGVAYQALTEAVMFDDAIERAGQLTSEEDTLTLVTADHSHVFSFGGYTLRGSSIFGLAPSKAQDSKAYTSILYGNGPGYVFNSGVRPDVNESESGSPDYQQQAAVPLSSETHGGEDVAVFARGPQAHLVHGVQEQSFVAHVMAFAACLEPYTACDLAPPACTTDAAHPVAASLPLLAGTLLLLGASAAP
Chain of Intestinal-type alkaline phosphatase (Mus musculus, UniProt P24822) (P24822 whole entry): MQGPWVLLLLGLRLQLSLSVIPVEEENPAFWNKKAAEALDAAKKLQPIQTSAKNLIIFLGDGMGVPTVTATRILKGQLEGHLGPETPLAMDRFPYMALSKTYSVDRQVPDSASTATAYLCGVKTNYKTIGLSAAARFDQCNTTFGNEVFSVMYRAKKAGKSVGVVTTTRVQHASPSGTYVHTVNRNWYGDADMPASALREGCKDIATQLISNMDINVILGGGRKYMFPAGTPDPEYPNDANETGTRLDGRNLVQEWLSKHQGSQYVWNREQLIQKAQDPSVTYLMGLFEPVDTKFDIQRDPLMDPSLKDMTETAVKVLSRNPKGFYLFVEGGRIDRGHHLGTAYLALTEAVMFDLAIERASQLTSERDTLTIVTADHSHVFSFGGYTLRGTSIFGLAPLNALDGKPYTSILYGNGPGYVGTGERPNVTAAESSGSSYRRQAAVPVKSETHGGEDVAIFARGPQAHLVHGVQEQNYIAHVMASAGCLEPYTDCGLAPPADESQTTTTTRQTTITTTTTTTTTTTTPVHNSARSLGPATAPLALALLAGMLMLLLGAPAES
Chain of Glucose-6-phosphate 1-dehydrogenase (P11413 whole entry): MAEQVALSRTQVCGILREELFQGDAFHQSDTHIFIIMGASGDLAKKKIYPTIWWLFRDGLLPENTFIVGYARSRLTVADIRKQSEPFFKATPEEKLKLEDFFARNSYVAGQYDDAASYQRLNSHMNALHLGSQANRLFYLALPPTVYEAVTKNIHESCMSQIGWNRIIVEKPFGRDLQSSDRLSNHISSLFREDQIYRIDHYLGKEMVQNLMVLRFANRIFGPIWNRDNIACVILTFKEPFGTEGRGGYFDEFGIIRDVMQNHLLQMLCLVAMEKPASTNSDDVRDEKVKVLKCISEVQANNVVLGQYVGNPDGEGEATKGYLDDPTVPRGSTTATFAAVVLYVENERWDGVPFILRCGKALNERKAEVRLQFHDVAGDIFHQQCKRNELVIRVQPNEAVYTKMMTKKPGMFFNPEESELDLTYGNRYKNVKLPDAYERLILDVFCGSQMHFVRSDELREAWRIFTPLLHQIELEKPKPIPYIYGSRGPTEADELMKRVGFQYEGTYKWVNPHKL
Chain of FAD-linked sulfhydryl oxidase ALR (P55789 whole entry): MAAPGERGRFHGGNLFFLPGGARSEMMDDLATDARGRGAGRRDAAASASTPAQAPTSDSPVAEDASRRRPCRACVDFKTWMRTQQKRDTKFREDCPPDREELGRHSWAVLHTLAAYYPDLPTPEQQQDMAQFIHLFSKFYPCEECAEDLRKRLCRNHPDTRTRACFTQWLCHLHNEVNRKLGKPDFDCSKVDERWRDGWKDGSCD
Chain of DNA damage-inducible transcript 3 protein (P35639 whole entry): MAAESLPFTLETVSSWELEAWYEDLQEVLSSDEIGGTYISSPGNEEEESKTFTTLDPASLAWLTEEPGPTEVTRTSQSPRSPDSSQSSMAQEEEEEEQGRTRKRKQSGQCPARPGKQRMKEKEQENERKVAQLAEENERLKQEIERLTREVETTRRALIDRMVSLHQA
Chain of Protein Wnt-3a (P27467 whole entry): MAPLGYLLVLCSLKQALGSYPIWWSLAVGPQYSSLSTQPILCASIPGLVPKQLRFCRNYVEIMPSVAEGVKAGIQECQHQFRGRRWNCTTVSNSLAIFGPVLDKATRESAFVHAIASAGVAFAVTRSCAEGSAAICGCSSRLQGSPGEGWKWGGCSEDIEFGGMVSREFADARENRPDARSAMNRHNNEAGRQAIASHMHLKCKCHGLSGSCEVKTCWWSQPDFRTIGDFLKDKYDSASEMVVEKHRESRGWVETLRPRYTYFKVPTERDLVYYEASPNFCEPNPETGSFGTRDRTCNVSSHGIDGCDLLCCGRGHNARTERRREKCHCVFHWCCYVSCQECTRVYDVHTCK

## CN1CCN(CCC=C2c3ccccc3Sc3ccc(S(=O)(=O)N(C)C)cc32)CC1
Vero [1]
  IC50: > 25 µM (active)
Vero [2]
  CC50: 19.7 µM (active)

## O=C(Cn1cc(C(=O)c2ccco2)c2ccccc21)Nc1ccccc1F
[3]
  IC50: 1.33 µM (active)
[4]
  AC50: 4.67 µM (active)
[5]
  AC50: 2.6 µM (active)
[6]
  IC50: 1.79 µM (active)
Protein Wnt-3a
  IC50: 4.08 µM (active)

## COC(=O)c1nc(N)sc1-c1ccc(Cl)c(Cl)c1
CAAX prenyl protease 2 [7]
  AC50: 21.3 µM (active)
CAAX prenyl protease 2 [8]
  AC50: 11.6 µM (active)

## Cc1ccc(/C=C2\SC(=S)N(CCC(=O)N3CCOCC3)C2=O)cc1
Vero [1]
  IC50: > 25 µM (active)
Vero [2]
  CC50: 14.5 µM (active)

## CCOC(=O)c1sc(NN=C2C(=O)NC(=O)NC2=O)c(C(=O)OCC)c1C
[9]
  Absolute IC50 (CHOP): 10 µM

## COc1cc(CN2CCN(CCCc3ccccc3)C(CCO)C2)cc(OC)c1O (centres undefined)
[10]
  IC50: 58.7 µM (inactive)

## Cc1nnc(N/N=C/c2ccc(-c3ccccc3F)o2)n1N
Cells [11]
  IC50: 22.3 µM (active)
[10]
  IC50: > 80 µM (inactive)

## O=C(NC1CCCCC1)c1ccc2ccccc2c1O
Vero [1]
  IC50: 11.3 µM (active)

## COc1cc2nc(N(CCCN(C)C)C(=O)c3ccc(S(=O)(=O)N4CCc5ccccc5C4)cc3)sc2cc1OC
Bcl-2-related protein A1
  IC50: > 20 µM (inactive)
Cells [12]
  EC50: 0.569 µM (active)
[13]
  IC50: 8.69 µM (active)
[14]
  EC50: > 60 µM (not active)
[15]
  IC50: 8.3 µM (active)
[16]
  EC50: < 0.1 µM (active)

## O=C(CSc1nnc(COc2ccccc2)o1)N1CCN(c2ccccc2)CC1
Troponin, cardiac muscle
  EC50: > 71.5 µM (inactive)

## COc1ccc(Nc2nnc(SCC(=O)/C=C3/N(C)c4ccccc4C3(C)C)s2)cc1
[3]
  IC50: 1.72 µM (active)
[6]
  IC50: 1.64 µM (active)
Protein skinhead-1
  IC50: > 100 µM (inactive)
[17]
  CC50: 7.33 µM (active)
Leucine aminopeptidase
  IC50: 21.1 µM (active)

## C#CCOCCOCCOCCNc1nc(N2CCN(C(=O)CCCCCCCCCCNC(=O)Cn3cc(C[C@@H](C)O)nn3)CC2)nc(N2CCN(C(=O)CCCCCCCCCCNC(=O)[C@@H](CCSC)n3cc(CCO)nn3)CC2)n1
[18]
  IC50: 27.3 µM (active)
[19]
  IC50: 36.3 µM (active)
[20]
  IC50: 27.6 µM (active)

## Cc1cc(O)c(Sc2nc[nH]n2)cc1NS(=O)(=O)c1ccc(Cl)cc1
[21]
  AC50: 1.52 µM (active)
[18]
  IC50: 92.6 µM (active)
[19]
  IC50: > 100 µM (inactive)
[20]
  IC50: 5.84 µM (active)

## C#CCOCCOCCOCCNc1nc(N2CCN(C(=O)CCCCCCCCCCNC(=O)Cn3cc(C[C@@H](C)O)nn3)CC2)nc(N2CCN(C(=O)CCCCCCCCCCNC(=O)[C@H](CCCCN)n3cc(C[C@@H](C)CC)nn3)CC2)n1
[22]
  AC50: 7.11 µM (active)
[18]
  IC50: 95.5 µM (active)
[19]
  IC50: > 100 µM (inactive)
[20]
  IC50: 4.71 µM (active)
